Reference: patent US7807678B2, “Peptidomimetics of biologically active metallopeptides” (Palatin Technologies, Inc., priority 2001, dated 2010)
Where two headings read alike, the source gives them in different places. Non-standard residues stand in square brackets, D forms with d. Residues, ends and D or L forms follow the SMILES beside them. *: point of attachment. Hyp = O=C(O)[CH]1C[CH](O)CN1; Nle = CCCC[CH](N)C(=O)O; NH(CH2)3NH2 = NCCCN*; Bn = c1ccc(C*)cc1

How the values were obtained:
MC4-R (HEK-293 cells) = target: T1, MC4-R (HEK-293 cells) (Homo sapiens, UniProt P32245); assay: cAMP assay for agonist/antagonist status, MC4-R; assay type: cell-based
T1 construct: expressed in transfected cells; host or cells: HEK-293
Experimental: (§1) The Ki (nM) of certain peptidomimetics were determined, as was the agonist/antagonist status with respect to MC4-R, Functional evaluation of compounds at melanocortin receptors was performed by measuring the accumulation of intracellular cAMP in HEK-293 cells expressing MC3-R, MC4-R or MC5-R, and in B-16 mouse melanoma cells (containing MC1-R). Antagonistic activity was determined by measuring the inhibition of α-MSH-induced cAMP levels following exposure to the compounds. Cells, suspended in Earle's Balanced Salt Solution containing 10 mM HEPES, pH 7.5, 5 mM MgCl2, 1 mM glutamine, 0.1% albumin and 0.6 mM 3-isobutyl-1-methyl-xanthine, a phosphodiesterase inhibitor, were plated in 96 well plates at a density of 0.5×10^5 cells per well. Cells were incubated with the test compounds in the presence or absence of α-MSH for 1 hour at 37° C. cAMP levels were measured by EIA (Amersham) in the cell lysates. Data analysis and EC50 values were determined using nonlinear regression analysis with Prism Graph-Pad software.

[1] = target: T2, MC1-R (B-16 mouse melanoma cells) (Mus musculus, UniProt Q01727); assay: Competitive inhibition binding assay, 125I-NDP-α-MSH, MC1-R; conditions: 1 μM compound; inhibition of 125I-NDP-α-MSH binding; mean of triplicates; results less than 0% reported as 0%
T2 construct: B-16 mouse melanoma cells (containing MC1-R); endogenous in cells; host or cells: B-16 mouse melanoma cells
Method in brief: (§2)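 Membranes from hMC3-R, hMC4-R or hMC5-R cells, or B-16 mouse melanoma cells (MC1-R), were incubated 90 min at room temperature with 0.4 nM 125I-NDP-α-MSH in HEPES pH 7.2 with Mg2+/Ca2+/K+, and test compound generally at 1 μM. Filter-bound radioactivity was gamma counted. Specific binding was defined with 1 μM α-MSH; triplicate means.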

MC4-R [2] = target: T3, MC4-R (Homo sapiens, UniProt P32245); assay: Competitive inhibition binding assay, 125I-NDP-α-MSH, MC4-R; design: expressed in transfected cells; conditions: 1 μM compound; inhibition of 125I-NDP-α-MSH binding; mean of triplicates; results less than 0% reported as 0%
Method in brief: as §2

[3] = target: T2, MC1-R (B-16 mouse melanoma cells); assay: cAMP assay for agonist/antagonist status, MC1-R; assay type: cell-based
Experimental: as §1

MC5-R (HEK-293 cells) = target: T4, MC5-R (HEK-293 cells) (Homo sapiens, UniProt P33032); assay: cAMP assay for agonist/antagonist status, MC5-R; assay type: cell-based
T4 construct: expressed in transfected cells; host or cells: HEK-293
Experimental: as §1

MC3-R [4] = target: T5, MC3-R (Homo sapiens, UniProt P41968); assay: Competitive inhibition binding assay, 125I-NDP-α-MSH, MC3-R; design: expressed in transfected cells; conditions: 1 μM compound; inhibition of 125I-NDP-α-MSH binding; mean of triplicates; results less than 0% reported as 0%
Method in brief: as §2

MC5-R [5] = target: T6, MC5-R (Homo sapiens, UniProt P33032); assay: Competitive inhibition binding assay, 125I-NDP-α-MSH, MC5-R; design: expressed in transfected cells; conditions: 1 μM compound; inhibition of 125I-NDP-α-MSH binding; mean of triplicates; results less than 0% reported as 0%
Method in brief: as §2

MC3-R [6] = target: T5, MC3-R; assay: Ki determination by the method of Example 4, MC3-R; assay type: binding; design: expressed in transfected cells; host or cells: HEK-293
Experimental: as §1

MC5-R [7] = target: T6, MC5-R; assay: Ki determination by the method of Example 4, MC5-R; assay type: binding; design: expressed in transfected cells; host or cells: HEK-293
Experimental: as §1

MC4-R [8] = target: T3, MC4-R; assay: Ki determination by the method of Example 4, MC4-R; assay type: binding; design: expressed in transfected cells; host or cells: HEK-293; conditions: bound in μM; read-out: Ki MC4-R
Experimental: as §1

[9] = target: T2, MC1-R (B-16 mouse melanoma cells); assay: Ki determination by the method of Example 4, MC1-R; assay type: binding; conditions: bound in μM; read-out: Ki MC1-R
Experimental: as §1

[10] = bound in μM, read-out: Ki MC3-R

T4 sequence (P33032 whole entry): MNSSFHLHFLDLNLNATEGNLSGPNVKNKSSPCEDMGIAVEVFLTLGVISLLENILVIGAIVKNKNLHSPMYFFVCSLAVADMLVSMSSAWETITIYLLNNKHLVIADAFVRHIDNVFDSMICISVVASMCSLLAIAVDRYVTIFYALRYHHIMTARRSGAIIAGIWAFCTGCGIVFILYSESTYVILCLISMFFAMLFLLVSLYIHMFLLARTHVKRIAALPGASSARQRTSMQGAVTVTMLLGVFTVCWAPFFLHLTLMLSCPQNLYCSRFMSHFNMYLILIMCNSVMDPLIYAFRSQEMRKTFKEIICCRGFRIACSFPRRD
T6 sequence (P33032 whole entry): as above
T3 sequence (P32245 whole entry): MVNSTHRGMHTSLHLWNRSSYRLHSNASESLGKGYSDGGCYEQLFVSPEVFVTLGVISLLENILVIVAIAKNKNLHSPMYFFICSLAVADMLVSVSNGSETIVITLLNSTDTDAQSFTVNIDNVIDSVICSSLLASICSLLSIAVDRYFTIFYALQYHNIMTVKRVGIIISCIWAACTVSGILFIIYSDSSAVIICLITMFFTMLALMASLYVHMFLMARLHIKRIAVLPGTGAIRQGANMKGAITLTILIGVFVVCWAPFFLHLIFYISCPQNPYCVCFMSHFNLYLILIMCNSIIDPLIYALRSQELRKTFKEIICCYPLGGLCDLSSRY
T1 sequence (P32245 whole entry): as above
T2 sequence (Q01727 whole entry): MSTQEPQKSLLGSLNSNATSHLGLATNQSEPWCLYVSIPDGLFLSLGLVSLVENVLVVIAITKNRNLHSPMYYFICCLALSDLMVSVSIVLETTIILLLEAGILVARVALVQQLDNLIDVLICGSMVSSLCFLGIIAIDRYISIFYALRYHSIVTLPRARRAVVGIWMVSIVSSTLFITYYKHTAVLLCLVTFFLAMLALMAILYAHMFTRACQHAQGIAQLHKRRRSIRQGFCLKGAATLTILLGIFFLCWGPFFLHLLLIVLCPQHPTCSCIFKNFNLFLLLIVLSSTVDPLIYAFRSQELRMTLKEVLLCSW
T5 sequence (P41968 whole entry): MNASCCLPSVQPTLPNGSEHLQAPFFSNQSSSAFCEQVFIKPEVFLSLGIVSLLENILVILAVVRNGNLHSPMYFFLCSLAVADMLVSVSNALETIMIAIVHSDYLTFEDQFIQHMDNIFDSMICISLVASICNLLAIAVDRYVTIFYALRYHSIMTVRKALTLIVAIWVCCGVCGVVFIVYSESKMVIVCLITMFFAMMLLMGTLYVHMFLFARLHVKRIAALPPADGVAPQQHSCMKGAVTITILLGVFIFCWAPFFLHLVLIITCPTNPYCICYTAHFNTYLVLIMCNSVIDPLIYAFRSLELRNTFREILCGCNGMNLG

## N=C(N)NCCC[C@H]1C(=O)N(CCc2ccc3ccccc3c2)CCN1C(=O)[C@H](N)Cc1ccc(Cl)cc1Cl [Example 51]
MC4-R (HEK-293 cells)
  agonist/antagonist status as to MC4-R: agonist
[1]
  Inhibition at 1 μM MC1-R: 22%
MC4-R [2]
  Inhibition at 1 μM MC4-R: 95%
[3]
  agonist/antagonist status as to MC1-R: antagonist
MC5-R (HEK-293 cells)
  agonist/antagonist status as to MC5-R: agonist
MC3-R [4]
  Inhibition at 1 μM MC3-R: 47%
MC5-R [5]
  Inhibition at 1 μM MC5-R: 35%

## NCCC[C@H]1C(=O)N(CCc2ccc3ccccc3c2)CCN1C(=O)[C@@H](Cc1ccc(Cl)cc1Cl)NC(=O)[C@@H](N)COCc1ccccc1 [Example 52]
MC4-R (HEK-293 cells)
  agonist/antagonist status as to MC4-R: agonist
[1]
  Inhibition at 1 μM MC1-R: 36%
MC4-R [2]
  Inhibition at 1 μM MC4-R: 94%
[3]
  agonist/antagonist status as to MC1-R: agonist
MC5-R (HEK-293 cells)
  agonist/antagonist status as to MC5-R: agonist
MC3-R [4]
  Inhibition at 1 μM MC3-R: 25%
MC5-R [5]
  Inhibition at 1 μM MC5-R: 63%

## N=C(N)NCCC[C@H]1C(=O)N(CCc2ccc3ccccc3c2)CCN1C(=O)[C@@H](Cc1ccc(Cl)cc1Cl)NC(=O)[C@@H](N)COCc1ccccc1 [Example 53]
MC4-R (HEK-293 cells)
  agonist/antagonist status as to MC4-R: agonist
[1]
  Inhibition at 1 μM MC1-R: 81%
MC4-R [2]
  Inhibition at 1 μM MC4-R: 99%
[3]
  agonist/antagonist status as to MC1-R: agonist
MC5-R (HEK-293 cells)
  agonist/antagonist status as to MC5-R: agonist
MC3-R [4]
  Inhibition at 1 μM MC3-R: 93%
MC5-R [5]
  Inhibition at 1 μM MC5-R: 96%

## NCCCCC1C(=O)N2C(COc3ccc4ccccc4c3)CCC2N1C(=O)C(Cc1ccc(Cl)cc1)NC(=O)C1Cc2ccccc2CN1 (stereo not drawn) [Example 80]
MC3-R [6]; [10]
  Ki: > 1 µM

## CCCCCCC(=O)NC(COCc1ccccc1)C(=O)NC(Cc1ccc(Cl)cc1)C(=O)N1C(CCCCN)C(=O)N2C(COc3ccc4ccccc4c3)CCC21 (stereo not drawn) [Example 81]
MC3-R [6]; read-out: Ki (nM) MC3-R
  Ki: 0.209 µM
MC5-R [7]; read-out: Ki (nM) MC5-R
  Ki: 134 nM

## N=C(N)NCCCC1C(=O)N2C(COc3ccc4ccccc4c3)CCC2N1C(=O)C(Cc1ccccc1Cl)NC(=O)C(N)COCc1ccccc1 (stereo not drawn) [Example 99]
MC3-R [6]; [10]
  Ki: > 1 µM

## N=C(N)NCCC[C@H]1C(=O)N2C(CC[C@@H]2COc2ccc3ccccc3c2)N1C(=O)[C@@H](Cc1ccc(Cl)cc1Cl)NC(=O)[C@@H]1C[C@@H](OCc2ccccc2)CN1 (stereo partly drawn) [Example 113]
MC4-R (HEK-293 cells)
  agonist/antagonist status as to MC4-R: antagonist
[1]
  Inhibition at 1 μM MC1-R: 53%
MC4-R [2]
  Inhibition at 1 μM MC4-R: 100%
[3]
  agonist/antagonist status as to MC1-R: agonist
MC5-R (HEK-293 cells)
  agonist/antagonist status as to MC5-R: agonist
MC3-R [4]
  Inhibition at 1 μM MC3-R: 84%
MC5-R [5]
  Inhibition at 1 μM MC5-R: 100%

## N=C(N)NCCC[C@H]1C(=O)N2C(CC[C@@H]2COc2ccc3ccccc3c2)N1C(=O)[C@@H](Cc1ccc(Cl)cc1Cl)NC(=O)[C@@H](N)COCc1ccccc1 (stereo partly drawn) [Example 114]
MC4-R (HEK-293 cells)
  agonist/antagonist status as to MC4-R: agonist
[1]
  Inhibition at 1 μM MC1-R: 53%
MC4-R [2]
  Inhibition at 1 μM MC4-R: 100%
[3]
  agonist/antagonist status as to MC1-R: agonist
MC5-R (HEK-293 cells)
  agonist/antagonist status as to MC5-R: agonist
MC3-R [4]
  Inhibition at 1 μM MC3-R: 77%
MC5-R [5]
  Inhibition at 1 μM MC5-R: 94%

## CCCCC(N)C(=O)NC(C)C(=O)NC(Cc1cnc[nH]1)C(=O)NC(Cc1ccccc1)C(=O)N1CC(OCc2ccccc2)CC1C(=O)NCCCN (stereo not drawn) [Example 134] (H-[Nle]AHF[Hyp](Bn)-{NH(CH2)3NH2}; configuration not given here)
MC4-R [8]
  Ki: > 1 µM
MC3-R [6]; [10]
  Ki: > 1 µM
MC5-R [7]; bound in μM, read-out: Ki MC5-R
  Ki: > 1000 nM

## NCCCNC(=O)C1CC(OCc2ccccc2)CN1C(=O)C(Cc1ccc(Cl)cc1)NC(=O)C1Cc2ccccc2CN1 (stereo not drawn) [Example 145]
MC4-R [8]
  Ki: > 1 µM
MC3-R [6]; [10]
  Ki: > 1 µM
[9]
  Ki: > 1 µM
